Results as given in patent publication US6355426B2, “Methods for the characterization and selection of RNA target motifs that bind compounds of pharmaceutical use” (priority 1996, dated 2002).

Legend:
[1] = tested on: 30S subunits and 3' domain 16S rRNA sub-particle; settings: 30S subunits and reconstituted 3' domain particle (nucleotides 923-1542 with eight r-proteins); cited from earlier work
[2] = tested on: E. coli strains DH5a and JM109; assay: Growth of pGEMR / pGEMR294 transformants on plates with varying concentrations of spectinomycin; type: cell-based; settings: 37° C.
Procedure: E. coli strains DH5a and JM109 were conventionally transformed with pGP1-2, and were subsequently transformed by pGEMR (control) and pGEMR294 (which contains the 16S sequence) as described above in Example 1D. Transformants were selected on LB agar containing ampicillin (200 ug/mL) and kanamycin ([…]). These transformants were subsequently examined for their ability to grow in the presence of varying concentrations of spectinomycin (5, 10, 15, 20 and 40 ug/mL). Spectinomycin resistant transformants were recovered at 37° C.
By contrast, transformants of pGEMR294 grew in the presence of the drug up to […]. Plasmids isolated from the transformants and used to retransform each strain, confirmed that resistance was indeed plasmid dependent.

[3] = tested on: E. coli strain DC2; assay: Selection of spectinomycin-resistant transformants from a random rRNA fragment library; type: cell-based
Source text: Random rDNA fragments were generated by restriction endonuclease digestion of the entire rrnB operon encoding all three rDNAs (16S, 23S and 5S) and the spacer regions using a range and combination of one or more enzymes (including either AluI, HaeIII or DpnI or a double digestion with AluI/DpnI or HaeIII/DpnI) in which recognition sites occurred frequently within the target sequence. The enzymes AluI, HaeIII and DpnI release fragments that can be cloned in either orientation in to the SmaI site on pGEMR.
The fragments were ligated into the SmaI site in pGEMR and used to transform the respective strains. The diversity of RNA fragments within the library was determined by in vitro transcription of radiolabeled transcripts using the RIBOMAXÔ system (Promega), resolution by denaturing gel electrophoresis, and autoradiography according to standard procedures [Sambrook et al, cited above]. Briefly described, to establish that the pool of transformants harbored pGEMR encoding a mixed population of rRNA fragments, the plasmids were isolated, linearized with HindIII and transcribed in vitro with T7 RNA polymerase in the presence of ^32PaUTP. The products were resolved by denaturing gel electrophoresis and visualized by autoradiography. The library consisted of a large number of transcripts, varying in size with an average of 200-500 nucleotides in length. […]

CN[C@@H]1[C@H](O)[C@H](NC)[C@H]2O[C@@]3(O)C(=O)C[C@@H](C)O[C@H]3O[C@@H]2[C@H]1O [spectinomycin]
binding affinity to 30S subunit versus 3' domain sub-particle (dependence of protection on drug concentration) [1]: binds with similar affinity to each particle
spectinomycin concentration up to which transformants grew ([2]; transformants of pGEMR294 (16S rRNA fragment nucleotides 972-1266, helix 34) with pGP1-2): up to 20 mg/mL
spectinomycin concentration above which transformants did not survive on plates ([2]; transformants of pGEMR (control) with pGP1-2): above 5 mg/mL
spectinomycin concentration up to which resistant transformants developed on plates ([3]; DC2 (pGP1-2) transformed with rRNA fragment library (16S/23S hybrid fragment), after 48 hours incubation at 37° C.): up to 40 ug/mL
level of spectinomycin resistance, transformants expressing 16/23S RNA versus wild type helix 34 fragment ([3]; comparison of transformants expressing 16/23S hybrid RNA with those encoding wild type helix 34 fragment): higher level of spectinomycin resistance
